# Values quoted from earlier work as cited in patent publication US20070275062A1, “Controlled release oxycodone compositions” (priority 1993, published 2007).
# Where two headings read alike, the source gives them in different places.
# Tested on: pain
# Conditions: for dose-response slopes: Beaver, et al.
structure (smiles),measurement,setting,value
COc1ccc2c3c1O[C@H]1C(=O)CC[C@@]4(O)[C@@H](C2)N(C)CC[C@]314 [oxycodone],parallelism of the dose-response curves,in comparison with other oral and parenteral opioids,no substantial deviation from parallelism
same,dose-response slopes,oral as compared to parenteral oxycodone,comparable dose-response slopes
same,dose-response slopes,parenteral oxycodone as compared to parenteral morphine,comparable dose-response slopes
